Experimental findings from patent publication US6861417B2, “Pyridin-4-YL or pyrimidin-4-YL substituted pyrazines” (SmithKline Beecham Corporation, priority 1998, dated 2005) are described below.

Where only a bound is given, the exact number is not on record here.

This assay addresses T1, CSBP/p38 (Homo sapiens, UniProt Q16539).
T1 construct: made in house; host or cells: yeast
Nature of the assay: CSBP Kinase Assay (transfer of 32P from ATP to EGFR-derived peptide T669). The class given is biochemical. Here is the method:
This assay measures the CSBP-catalyzed transfer of ^32P from [a-^32P]ATP to threonine residue in an epidermal growth factor receptor (EGFR)-derived peptide (T669) with the following sequence: […] (residues 661-681). (See Gallagher et al., “Regulation of Stress Induced Cytokine Production by Pyridinyl Imidazoles: Inhibition of CSPB Kinase”, BioOrganic & Medicinal Chemistry, 1997, 5, 49-64).
Reactions were carried in round bottom 96 well plate (from Corning) in a […]. Reactions contained (in final concentration): 25 mM Hepes, pH7.5; 10 mM MgCl2; 0.17 mM ATP (the Km[ATP] of p38 (see Lee et al., Nature […], n72 pg. 639-746 (December 1994) and Young et al., J. Biol. Chem. 272, n18 pg. 12116-12121 (May 1997)); 2.5 uCi of [g-32P]ATP; 0.2 mM sodium orthovanadate; 1 mM DTT; 0.1% BSA; 10% glycerol; 0.67 mM T669 peptide; and 2-4 nM of yeast-expressed, activated and purified p38. Reactions were initiated by the addition of [gamma-32P]Mg/ATP, and incubated for 25 min at 37 C. Inhibitors (dissolved in DMSO) were incubated with the reaction mixture on ice for 30 minutes prior to adding the 32P-ATP. Final DMSO concentration was 0.16%. […] Filters were washed with 75 mM phosphoric acids, and incorporated 32P was quantified using beta scintillation counter. […]

T1 sequence (Q16539 whole entry): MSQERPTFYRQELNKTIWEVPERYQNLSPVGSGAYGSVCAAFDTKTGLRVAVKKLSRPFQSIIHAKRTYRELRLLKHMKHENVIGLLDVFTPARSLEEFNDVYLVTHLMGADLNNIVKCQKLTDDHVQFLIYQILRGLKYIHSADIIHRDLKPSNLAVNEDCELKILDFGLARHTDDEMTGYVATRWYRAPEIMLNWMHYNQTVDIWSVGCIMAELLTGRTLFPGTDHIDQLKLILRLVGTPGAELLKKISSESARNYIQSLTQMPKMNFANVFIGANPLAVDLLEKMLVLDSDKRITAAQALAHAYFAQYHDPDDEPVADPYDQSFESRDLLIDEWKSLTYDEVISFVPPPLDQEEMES

A word on the IC50: it is the midpoint of a concentration-inhibition curve. Consider `Fc1ccc(-c2nccnc2-c2ccncc2)cc1` [Example 2, 2-(4-Fluorophenyl)-3-(pyridin-4-yl)pyrazine], for which the IC50 (CSBP kinase assay, called "this binding assay", read-out: positive inhibitory activity, IC50) was less than 50 µM.
`COc1ccc2cc(-c3nccnc3-c3ccncc3)ccc2c1` [Example 3, 2-(6-Methoxy)napthyl-2-yl-3-(4-pyridyl)pyrazine]: the “inhibitory activity upon retesting” value (upon retesting, "at this micromolar amount" (IC50 of <50 uM)) is recorded as “not found active”.
